The values below come from US20220339122A1, “METHODS FOR THE TREATMENT OF DISEASES ASSOCIATED WITH DYSREGULATED ACTIVATION AND RECRUITMENT OF NEUTROPHILS” (Chang Gung University, priority 2021, published 2022).

In assay [1] the test system is human neutrophils. Put plainly: NET formation, quantification of extracellular DNA with Sytox green. In kind it is cell-based. The note with it: 10 nM PMA; 1-10 μM bletinib. On the procedure:
Human neutrophils (10^6 cells/mL) resuspended in HBSS with 2.5 μM Sytox green were incubated with DMSO or bletinib for 10 min and stimulated using 10 nM PMA or 10 μg/mL LPS for 3 h. The fluorescence intensity was quantified on a Tecan Infinite 200 reader at 485-535 nm.

In the next assay the test system is Vav (Y174). Description: Immunoblotting of neutrophil lysates, Vav phosphorylation. The format is cell-based, human. The note with it: 0.1 μM fMLF-stimulated neutrophils. On the procedure: Neutrophils incubated with bletinib or DMSO at 37° C. for 5 min were stimulated with 0.1 μM fMLF for 30 s. The proteins were separated from neutrophil lysates through electrophoresis (12% sodium dodecyl sulphate-polyacrylamide gel electrophoresis) and then transferred to nitrocellulose membranes. The target proteins were identified through immunoblotting with specific antibodies against p38, p-p38, Akt, p-Akt S473, ERK, p-ERK, INK, p-JNK, Src, p-SFKs Y416, p-Src Y416, Lyn, p-Lyn (Y396), Fgr, p-Fgr (Y412), Hck, p-Hck (Y410), Btk, p-Btk Y223, Vav, and p-Vav (Y174) as well as with HRP-conjugated secondary anti-rabbit antibody (Cell Signaling Technology). The signal intensity was detected and quantified using the UVP BioSpectrum Imaging System (Analytik Jena, USA).

The target in another assay is Lyn (Homo sapiens, UniProt P07948). Put plainly: Cell-free ADP-Glo kinase assay, Lyn. In kind it is biochemical. The following applies: 1-10 μM bletinib or 0.1-3 μM PP2; 125 μM ATP; concentration-dependent. The protocol:
The kinase activity of SFKs was assessed using an ADP-Glo kinase assay kit (Promega, Fitchburg, USA) according to manufacturer instructions. […] The ADP-Glo reagent was used to end the kinase reaction and remove the remnant ATP; next, the kinase, which converted ADP to ATP, detection reagent was added and incubated for 30 min. Luciferin/luciferase luminescence was determined on an Infinite 200 Pro (Tecan, Switzerland).

For assay [2], the system named is human neutrophils. Put plainly: Neutrophil adhesion to bEnd.3 cells. The format is cell-based. The note with it: 1-10 μM bletinib; fMLF/CB. The protocol:
Human neutrophils (10^6 cells/mL) were labelled with Hoechst 33342 and then incubated with DMSO or Bletinib for 5 min. After centrifugation, the cells were resuspended and activated with 0.1 μM fMLF/1 μg/mL CB for 10 min before incubation with bEnd.3 cells at 37° C. for 30 min. After they were washed with HBSS, the cells were fixed with 4% paraformaldehyde and the neutrophils that adhered to the bEnd.3 cells were detected and quantified on a motorised inverted microscope (Olympus, Japan).
Adhesion and transmigration are both crucial steps in the neutrophil recruitment cascade during inflammation. In this example, to examine whether bletinib would interfere the adhesion and transmigration process, human neutrophils (10^6 cells/mL) were first labeled with Hoechst 33342, then pre-treated with bletinib (1-10 μM) and followed by stimulation with fMLF, then incubated with bEnd.3 cells in 37° C. for 30 min. […] Furthermore, IL-8 served as a chemotactic factor for the attraction of neutrophils.

The structures appear in SMILES notation.

Lyn, sequence (P07948 whole entry): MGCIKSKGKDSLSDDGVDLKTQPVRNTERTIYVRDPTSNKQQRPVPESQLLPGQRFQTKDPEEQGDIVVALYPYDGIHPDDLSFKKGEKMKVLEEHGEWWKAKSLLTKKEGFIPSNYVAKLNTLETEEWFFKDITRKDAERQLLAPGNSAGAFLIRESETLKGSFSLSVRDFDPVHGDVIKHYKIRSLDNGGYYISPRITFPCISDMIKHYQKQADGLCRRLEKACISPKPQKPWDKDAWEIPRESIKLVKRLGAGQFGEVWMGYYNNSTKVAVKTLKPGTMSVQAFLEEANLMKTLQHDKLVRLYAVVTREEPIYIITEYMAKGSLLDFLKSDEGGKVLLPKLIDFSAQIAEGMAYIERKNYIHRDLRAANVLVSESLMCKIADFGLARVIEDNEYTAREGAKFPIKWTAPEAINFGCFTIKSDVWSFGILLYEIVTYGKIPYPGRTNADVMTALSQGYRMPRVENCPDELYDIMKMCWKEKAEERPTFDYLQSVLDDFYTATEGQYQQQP

As for `COc1cc(O)cc(CCc2c(Cc3ccc(O)cc3)ccc(O)c2Cc2ccc(O)cc2)c1` [bletinib, 3,3′-dihydroxy-2′,6′-bis(p-hydroxybenzyl)-5-methoxybibenzyl], the “NET formation induced by PMA, fluorescent spectrometry (Sytox green)” value in the assay on human neutrophils [1] is recorded as “significantly mitigated”. In the assay with Vav (Y174), the “phosphorylation of Vav (Y174)” value was “significantly inhibited”. In addition, the “kinase activity of Lyn” value on Lyn was “inhibited”. In the assay on human neutrophils [2], the “adhesion function of fMLF-activated neutrophils (adhered on bEnd.3 cells)” value is “inhibited”.
